Data: patent US11149062B2, “HDAC inhibitors and methods of treatment using the same” (UWM Research Foundation, Inc., priority 2015, dated 2021)
Like-named read-outs stand apart in the source and are kept apart here.

Key:
Recombinant human HDAC3 = target: T1, Recombinant human HDAC3 (Homo sapiens, UniProt O15379); assay: HDAC-Glo I/II assay, HDAC3; assay type: biochemical; conditions: Class I HDAC; compounds reduced by TCEP prior to assay
T1 construct: purchased BPS Bioscience Inc
Experimental: (§1) The purified compounds of all fragments and natural product derivatives were evaluated for inhibitory effects on three different classes of HDAC proteins (class I, IIa, and IIb). […] All activity was determined by using a fluorescence-based in vitro assay. Class I HDAC proteins that were evaluated were HDAC1, HDAC2, HDAC3, HDAC8, HDAC4, and HDAC6. Class IIa HDAC protein were HDAC4 and the Class IIb HDAC protein were HDAC6.
(§2) HDAC-Glo™ I/II Assay and Screening System (Promega) was used to determine the HDAC inhibitory activity. Recombinant human HDAC1, HDAC2, HDAC3, HDAC4, HDAC6 and HDAC8 were purchased from BPS Bioscience Inc. The inhibitory activities of the test compounds against recombinant HDAC were performed according to reagent suppliers' protocols.
(§3) All test compounds were firstly dissolved in DMSO to make 10 mM stock solution. A certain amount of stock solution was diluted to 1 mM by DMSO and then reduced by tris(2-carboxyethyl)phosphine hydrochloride (TCEP) in a molar ration of 1:1.5 for 20 min at ambient temperature prior to being assayed. After reduction, a series of fivefold dilutions of each reduced compound were prepared with HDAC-Glo buffer and 25 μL of each dilution was added into a well on a 96-well plate. HDAC enzymes were diluted to the desired concentrations with HDAC-Glo buffer and 25 μL of each diluted enzyme was dispensed into a well to mix with 25 μL of testing compound at room temperature for 30-60 seconds. After the reaction mixture had been incubated at room temperature for 1 hour, 50 μL of HDAC-Glo reagent was added to each reaction well and mixed up for 30-60 seconds. Finally, the plate was incubated at room temperature for an additional 30 minutes before the luminescence was measured on a Synergy HT plate reader (Bio-Tek). The luminescence intensity data were analyzed using GraphPad Prism 5 (GraphPad Software). In the absence of any test compound, the luminescence intensity (I100) in each data set was defined as 100% activity. In the absence of both of HDAC enzymes and test compound, the luminescence intensity (I0) in each data set was defined as 0% activity. The relative activity (%) in the presence of each compound was calculated according to the following equation: % activity=(I−I0)/(I100−I0), where I=the luminescence intensity if a compound is present in the reaction. Experiments were performed in triplicate and the calculated mean values were used for plotting.

Recombinant human HDAC8 = target: T2, Recombinant human HDAC8 (Homo sapiens, UniProt Q9BY41); assay: HDAC-Glo I/II assay, HDAC8; assay type: biochemical; conditions: Class I HDAC; compounds reduced by TCEP prior to assay
T2 construct: purchased BPS Bioscience Inc
T2 sequence (Q9BY41 1-377): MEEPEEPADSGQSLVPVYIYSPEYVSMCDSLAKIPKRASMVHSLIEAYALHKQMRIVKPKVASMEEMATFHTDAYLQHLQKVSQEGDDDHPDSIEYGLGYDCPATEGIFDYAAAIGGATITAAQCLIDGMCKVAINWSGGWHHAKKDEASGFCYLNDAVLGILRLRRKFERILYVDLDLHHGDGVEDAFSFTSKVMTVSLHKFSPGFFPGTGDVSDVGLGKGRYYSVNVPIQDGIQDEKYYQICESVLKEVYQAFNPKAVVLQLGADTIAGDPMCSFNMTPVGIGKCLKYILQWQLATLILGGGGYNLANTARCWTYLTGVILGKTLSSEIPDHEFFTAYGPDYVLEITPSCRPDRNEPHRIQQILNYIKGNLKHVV
Experimental: as §1, §2, §3

[1] = 10 mg/mL cpd in 20% DMSO/saline
Recombinant human HDAC2 = target: T3, Recombinant human HDAC2 (Homo sapiens, UniProt Q92769); assay: HDAC-Glo I/II assay, HDAC2; assay type: biochemical; conditions: Class I HDAC; compounds reduced by TCEP prior to assay
T3 construct: purchased BPS Bioscience Inc
T3 sequence (Q92769 whole entry): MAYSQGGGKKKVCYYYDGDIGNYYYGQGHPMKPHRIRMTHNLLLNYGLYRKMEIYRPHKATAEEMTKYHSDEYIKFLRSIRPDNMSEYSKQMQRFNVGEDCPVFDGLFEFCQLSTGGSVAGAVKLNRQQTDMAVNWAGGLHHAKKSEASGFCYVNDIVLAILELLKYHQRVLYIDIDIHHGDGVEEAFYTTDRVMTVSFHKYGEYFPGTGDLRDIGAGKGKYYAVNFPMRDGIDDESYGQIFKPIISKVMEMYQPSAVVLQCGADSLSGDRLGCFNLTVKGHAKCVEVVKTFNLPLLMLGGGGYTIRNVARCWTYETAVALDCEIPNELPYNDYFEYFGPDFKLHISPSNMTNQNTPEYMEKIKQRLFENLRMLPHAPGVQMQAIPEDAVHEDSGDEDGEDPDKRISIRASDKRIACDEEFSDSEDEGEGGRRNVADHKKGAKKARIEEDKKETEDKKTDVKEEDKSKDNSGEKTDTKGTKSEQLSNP
Experimental: as §1, §2, §3

HCT-116 (colon cancer) = assay: MTT antiproliferative assay, HCT-116; assay type: cell-based; conditions: Homo sapiens, read-out: Antiproliferative Activity GI50, Colon HCT-116
Experimental: (§4) Briefly, the tumor cells (1×10^4 cells/well) were seeded in 96-well microtiter plates and incubated for 24 h at 37° C. Following incubation, the media was replaced with fresh media containing the above compounds at concentrations ranging from 1 μM to 1 pM diluted in DMSO and incubated for an additional 48 h. Drugs were run in duplicate or triplicate and control cells received fresh media with DMSO concentration equivalent to the treatment groups. […] After aspirating the culture medium, 200 μL of DMSO was added to dissolve the precipitate and the resulting solution was measured for absorbance at 570 nm with a reference wavelength of 690 nm using a microplate reader (Infinite M200 Pro TECAN).

Recombinant human HDAC1 = target: T4, Recombinant human HDAC1 (Homo sapiens, UniProt Q13547); assay: HDAC-Glo I/II assay, HDAC1; assay type: biochemical; conditions: for IC50: Class I HDAC, compounds reduced by TCEP prior to assay, read-out: IC50 of HDAC1; for Class I selectivity Ratio HDAC 1/HDAC8 / Class I vs. Class IIa Ratio HDAC 1/HDAC6: ratio of IC50 values
T4 construct: purchased BPS Bioscience Inc
T4 sequence (Q13547 whole entry): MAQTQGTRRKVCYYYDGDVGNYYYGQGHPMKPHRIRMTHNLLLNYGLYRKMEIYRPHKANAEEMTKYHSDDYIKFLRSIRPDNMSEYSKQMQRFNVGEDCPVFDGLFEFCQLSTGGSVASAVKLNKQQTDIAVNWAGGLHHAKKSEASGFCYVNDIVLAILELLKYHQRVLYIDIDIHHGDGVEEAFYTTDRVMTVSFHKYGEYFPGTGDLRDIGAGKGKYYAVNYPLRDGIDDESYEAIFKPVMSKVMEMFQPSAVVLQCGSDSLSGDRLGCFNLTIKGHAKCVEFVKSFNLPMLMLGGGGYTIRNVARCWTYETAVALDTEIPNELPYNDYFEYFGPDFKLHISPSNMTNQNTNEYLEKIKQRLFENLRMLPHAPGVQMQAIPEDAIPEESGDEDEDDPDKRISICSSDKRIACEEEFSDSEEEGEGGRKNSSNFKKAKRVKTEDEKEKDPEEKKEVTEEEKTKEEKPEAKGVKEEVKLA
Experimental: as §1, §2, §3

RFX393 (renal) = assay: MTT antiproliferative assay, RFX393; assay type: cell-based; conditions: 48 h, read-out: Antiproliferative Activity GI50, Renal RFX393
Experimental: as §4

[2] = system: MDA-MB-231 (breast cancer); assay: MTT antiproliferative assay, MDA-MB-231; assay type: cell-based; conditions: Homo sapiens, read-out: Antiproliferative Activity GI50, Breast MDA-MB-231
Experimental: as §4

COLO-205 (colon cancer) = assay: MTT antiproliferative assay, COLO-205; assay type: cell-based; conditions: Homo sapiens, read-out: Antiproliferative Activity GI50, Colon COLO-205
Experimental: as §4

Recombinant human HDAC4 = target: T5, Recombinant human HDAC4 (Homo sapiens, UniProt P56524); assay: HDAC-Glo I/II assay, HDAC4; assay type: biochemical; conditions: Class IIa HDAC; compounds reduced by TCEP prior to assay; read-out: IC50 of HDAC4
T5 construct: purchased BPS Bioscience Inc
T5 sequence (P56524 whole entry): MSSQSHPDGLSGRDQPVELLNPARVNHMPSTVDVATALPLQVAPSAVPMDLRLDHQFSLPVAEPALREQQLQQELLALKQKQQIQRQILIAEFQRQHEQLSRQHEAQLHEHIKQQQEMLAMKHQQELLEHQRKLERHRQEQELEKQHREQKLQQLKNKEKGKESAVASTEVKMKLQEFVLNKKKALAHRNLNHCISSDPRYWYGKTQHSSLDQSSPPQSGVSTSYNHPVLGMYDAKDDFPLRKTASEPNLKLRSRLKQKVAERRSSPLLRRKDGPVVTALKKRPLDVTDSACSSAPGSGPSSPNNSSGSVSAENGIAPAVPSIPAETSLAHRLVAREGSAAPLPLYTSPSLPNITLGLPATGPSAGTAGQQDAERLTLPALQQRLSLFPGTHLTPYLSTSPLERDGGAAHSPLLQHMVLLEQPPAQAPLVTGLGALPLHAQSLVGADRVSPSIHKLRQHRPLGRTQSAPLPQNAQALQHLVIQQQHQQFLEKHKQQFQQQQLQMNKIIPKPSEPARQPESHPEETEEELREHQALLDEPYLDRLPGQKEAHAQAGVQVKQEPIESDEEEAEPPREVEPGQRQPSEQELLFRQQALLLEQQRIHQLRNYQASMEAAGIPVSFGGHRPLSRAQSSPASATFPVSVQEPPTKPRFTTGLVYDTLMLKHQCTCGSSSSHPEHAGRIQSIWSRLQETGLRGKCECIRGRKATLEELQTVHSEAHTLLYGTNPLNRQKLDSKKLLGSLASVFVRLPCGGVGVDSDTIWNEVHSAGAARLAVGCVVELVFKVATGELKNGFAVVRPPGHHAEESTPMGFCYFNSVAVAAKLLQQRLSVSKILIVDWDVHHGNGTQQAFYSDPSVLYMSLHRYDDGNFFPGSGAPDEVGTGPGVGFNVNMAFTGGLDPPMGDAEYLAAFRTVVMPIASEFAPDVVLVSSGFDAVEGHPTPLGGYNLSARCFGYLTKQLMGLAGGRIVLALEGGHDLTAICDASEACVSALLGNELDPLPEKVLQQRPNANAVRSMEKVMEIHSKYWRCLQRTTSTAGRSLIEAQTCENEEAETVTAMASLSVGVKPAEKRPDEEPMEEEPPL
Experimental: as §1, §2, §3

SKOV-3 (ovarian) = assay: MTT antiproliferative assay, SKOV-3; assay type: cell-based; conditions: Homo sapiens, read-out: Antiproliferative Activity GI50, Ovarian SKOV-3
Experimental: as §4

DU-145 (prostate cancer) = assay: MTT antiproliferative assay, DU-145; assay type: cell-based; conditions: Homo sapiens, read-out: Antiproliferative Activity GI50, Prostate DU-145
Experimental: as §4

HeLa (cervical cancer) = assay: MTT antiproliferative assay, HeLa; assay type: cell-based; conditions: Homo sapiens, 48 h, read-out: Antiproliferative Activity GI50, Cervical HeLa
Experimental: as §4

in vivo = conditions: BALB/c, mouse, in vivo, ip
Source text: BALB/c mice were purchased from The Jackson Laboratory (Bar Harbor, Me.) and used between 7 and 10 weeks of age. Mice were housed in a conventional animal vivarium and were given free access to food and water. All studies and procedures were approved by the Animal Care and Use Committee of the University of Wisconsin, Milwaukee.
Each animal was initially weighed using a digital scale and then intraperitoneally (IP) injected with the compounds (listed in Table 2). A single mouse was given a single IP dose of 200 mg/kg, body weight, a second mouse received a dose of 100 mg/kg and a third mouse received a single dose of 50 mg/kg. The mice were observed and weighed every other day for a period of 2 weeks. They were euthanized if they lost more than 20% of their body weight or if there were other signs of significant toxicity. […] This process was repeated until a tolerated dose was found, and the MTD value was determined.
To determine the MTD in vivo, the compounds listed above were injected intraperitoneally into BALB/c mice and morbidity and mortality were monitored over two weeks.

[3] = system: colon (HCT-116), cervical (HeLa), and renal (RFX393) tumor cell lines; assay: MTT antiproliferative assay, all three tumor cell lines; assay type: cell-based; conditions: read-out: GI50 values against all three tumor cell lines
Experimental: as §4

[4] = HCT-116, HeLa, RFX393, summary of Table 3

T1 sequence (O15379 whole entry): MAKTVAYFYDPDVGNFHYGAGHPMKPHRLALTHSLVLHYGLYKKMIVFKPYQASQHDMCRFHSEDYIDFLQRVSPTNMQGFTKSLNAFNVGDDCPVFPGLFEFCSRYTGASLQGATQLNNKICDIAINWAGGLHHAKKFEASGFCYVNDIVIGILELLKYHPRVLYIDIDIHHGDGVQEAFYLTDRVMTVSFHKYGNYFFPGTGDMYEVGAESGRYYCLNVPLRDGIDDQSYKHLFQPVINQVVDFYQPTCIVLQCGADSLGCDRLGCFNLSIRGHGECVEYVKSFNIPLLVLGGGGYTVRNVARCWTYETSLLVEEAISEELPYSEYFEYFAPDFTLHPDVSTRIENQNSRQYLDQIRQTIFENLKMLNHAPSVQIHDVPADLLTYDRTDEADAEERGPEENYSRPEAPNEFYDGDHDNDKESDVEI
T1 sequence (Q9Y618 395-489 partner limits assumed): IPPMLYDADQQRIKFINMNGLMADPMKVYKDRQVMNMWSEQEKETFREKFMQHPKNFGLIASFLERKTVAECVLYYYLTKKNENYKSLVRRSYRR

Row | Compound | IC50 (Recombinant human HDAC3) [µM] | IC50 (Recombinant human HDAC8) [µM] | Solubility [1] | IC50 (Recombinant human HDAC2) [µM] | GI50 (HCT-116 (colon cancer); HCT-116, MTT, 48 h) [µM] | IC50 (Recombinant human HDAC1) [µM] | Class I selectivity Ratio HDAC 1/HDAC8 (Recombinant human HDAC1) | Class I vs. Class IIa Ratio HDAC 1/HDAC6 (Recombinant human HDAC1) | GI50 (RFX393 (renal); MTT) [µM] | IC50 (Recombinant human HDAC4) [µM] | GI50 (HeLa (cervical cancer); MTT) [µM] | MTD at 2 weeks (in vivo) [mg/kg] | also measured
1 | CCC(C)[C@H]1NC(=O)[C@H]2CSSCC/C=C/[C@H](CC(=O)N[C@H](CCSC)C(=O)N2)OC(=O)C[C@@H]1O (stereo partly shown) [TDP-A, Thailandepsin A, reference compound] | 0.0077 | 8.44 | Not soluble | 0.0081 | 0.00093 | 0.0024 | 0.00065 | 0.0088 | 0.00047 | 20.5 | 0.00036 | 6.25 | GI50 ([2]; MDA-MB-231, MTT, 48 h): 0.003 µM; GI50 (COLO-205 (colon cancer); COLO 205, MTT, 48 h): 0.0035 µM; GI50 (SKOV-3 (ovarian); SK-OV-3, MTT, 48 h): 0.002 µM; GI50 (DU-145 (prostate cancer); DU-145, MTT, 48 h): 0.001 µM
2 | CCC(C)C(NC(=O)CC(O)/C=C/CCS)C(=O)O (stereo not shown) [TDF4] | 0.714 | 43.9 | Mostly soluble |  | 3.7 | 0.0039 |  |  | 4.1 | > 1000 | 4.8 | > 200 | GI50 [3, 4]: ≤ 5 µM
3 | CCC(C)[C@H]1NC(=O)[C@H]2CSSCC/C=C/[C@H](CC(=O)N[C@H](CCSC)C(=O)N2)OC(=O)C[C@@H]1OC(C)=O (stereo partly shown) [TDC3] | 0.245 | 10 | Not soluble | 0.0442 | 0.12 | 0.0027 | 0.00006 | 0.0020 | 0.107 | 40.5 | 0.332 | > 200 | 
4 | CCC(C)[C@H]1NC(=O)[C@H]2CSSCC/C=C/[C@H](CC(=O)N[C@H](CCSC)C(=O)N2)OC(=O)C[C@@H]1OC(=O)c1ccccc1 (stereo partly shown) [TDC1] | 0.64 | 3.67 | Not soluble | 0.051 | 0.0247 | 0.0109 | 0.00252 | 0.0020 | 0.0351 | ~500 | 0.225 | 50 | GI50 ([2]; MDA-MB-231, MTT, 48 h): 0.04 µM; GI50 (COLO-205 (colon cancer); COLO 205, MTT, 48 h): 0.07 µM; GI50 (SKOV-3 (ovarian); SK-OV-3, MTT, 48 h): 0.03 µM; GI50 (DU-145 (prostate cancer); DU-145, MTT, 48 h): 0.08 µM
5 | CCC(C)[C@H]1NC(=O)[C@H]2CSSCC/C=C/[C@H](CC(=O)N[C@H](CCSC)C(=O)N2)OC(=O)C[C@@H]1OCCC=O (stereo partly shown) [TDC2] | 0.701 | 4.33 | Not soluble | 0.037 | 0.056 | 0.0096 | 0.00096 | 0.0064 | 0.051 | 135 | 0.141 | 12.5 | 
6 | O=C(CCCCCCC(=O)Nc1ccccc1)NO [SAHA, suberoyl anilide hydroxamic acid, reference compound] |  |  | Not soluble |  |  |  |  |  |  |  |  |  | GI50 [3]: 2.5 to 3 µM; GI50 (HCT-116 (colon cancer); HCT-116, 48 h): 2.7 µM; GI50 (RFX393 (renal)): 2.5 µM; GI50 ([2]; MDA-MB-231, 48 h): 1.5 µM; GI50 (COLO-205 (colon cancer); COLO 205, 48 h): 0.5 µM; GI50 (SKOV-3 (ovarian); SK-OV-3, 48 h): 1.5 µM; GI50 (DU-145 (prostate cancer); DU-145, 48 h): 2 µM; GI50 (HeLa (cervical cancer)): 2.8 µM; MTD at 2 weeks (in vivo; MTD (toxicity in healthy BALB/c mice), single IP dose, observed 2 weeks): > 200 mg/kg
7 | CCCC[C@H]1NC(=O)C[C@H]2/C=C/CCSSC[C@@H](NC1=O)C(=O)N[C@H](C(C)CC)[C@@H](O)CC(=O)O2 (stereo partly shown) [TDP-B, Thailandepsin B, reference compound] | 0.0482 | 10.9 | Not soluble | 0.0256 | 0.002 | 0.0022 | 0.00026 | 0.0034 | 0.0022 | 27.9 | 0.0021 | 6.25 | 
8 | CC(C)[C@H](NC(=O)CC(O)/C=C/CCS)C(=O)O (stereo partly shown) [TDF6] | 0.0416 | 16.6 | Soluble | 0.111 | 1.3 | 0.0035 | 0.00003 |  | 3.1 | > 1000 | 3.6 | > 200 | GI50 [3, 4]: ≤ 4 µM
